{"source": "patent US20240344241A1", "about": "“PROTEINACEOUS MOLECULES AND USES THEREFOR” (THE UNIVERSITY OF QUEENSLAND, priority 2021, published 2024)", "format_in_all_cases": "biochemical", "key": {"Human β-FXIIa": {"target": "T1, Human β-FXIIa (Homo sapiens, UniProt P00748)", "T1 construct": "Human β-FXIIa was obtained from Molecular Innovations, together with human FXa, human FXIa, human α-thrombin, and human plasma kallikrein; purchased Molecular Innovations; host or cells: purified from human plasma", "T1 sequence (P00748 373-615 limits assumed, other chains not shown)": "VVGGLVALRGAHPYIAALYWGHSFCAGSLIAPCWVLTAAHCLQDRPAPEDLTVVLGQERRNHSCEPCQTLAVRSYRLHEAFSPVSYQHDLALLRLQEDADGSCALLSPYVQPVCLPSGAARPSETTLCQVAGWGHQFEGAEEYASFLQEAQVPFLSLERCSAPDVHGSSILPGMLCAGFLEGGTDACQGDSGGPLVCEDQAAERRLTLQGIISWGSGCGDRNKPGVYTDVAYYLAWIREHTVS", "experiment": "FXIIa competitive inhibition assay, colorimetric substrate Ac-QRFR-pNA", "outline": "(§1)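 Assays run three times in duplicate at pH 8.0 (Tris-HCl, NaCl, CaCl2, Triton X-100). Rates of pNA or MCA release after enzyme–inhibitor equilibration at room temperature were fitted by non-linear regression to the Morrison equation for Ki.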"}, "[1]": {"system": "clotting via the extrinsic pathway", "experiment": "Prothrombin time (PT) assay in human plasma", "conditions": "at 10 μM", "source_text": "(§2) Citrated, platelet-poor plasma samples from healthy adults were collected, prepared, and stored using previously established collection protocols, such as in Zdenek et al. (2019) Toxicol in Vitro, 58: 97-109.\n(§3) Standard coagulation assays were used to determine the effect of the inhibitors on the clotting time of human plasma. Activated partial thromboplastin time (aPTT) uses a Kaolin reagent (clay) to activate the intrinsic/contact pathway of the coagulation cascade, whereas prothrombin time (PT) uses Neoplastine (lyophilized thromboplastin prepared from rabbit cerebral tissue) to activate the extrinsic/tissue-factor pathway of the coagulation cascade. A minor adjustment was made to both tests (addition of 25 μL inhibitor or buffer; refer to Table 17) to accommodate the addition of an inhibitor without changing the total volume (and therefore relative ratios of additives) of the assay. Concentrations of inhibitor are reported as the concentration at the point of incubation in the assay, i.e. not taking into account the addition of the start reagent (calcium for aPTT, or Neoplastine for PT).\n(§4) Clotting time (seconds) of plasma was automatically measured using a STA-R Max® analyzer (Stago, Asnieres sur Seine, France). Measurements were conducted using a viscosity-based (mechanical) detection system, whereby opposing magnets oscillate a small metal spherical pellet inside the test cuvette (250 μL total volume) until a clot is formed. Dilution of the inhibitor in Owren-Koller (OK) buffer for dose-response curves was performed automatically by the machine. Reagents were kept at 15-19° C. in the machine during experimentation and otherwise stored at 4° C. All tests were performed in triplicate."}, "Human trypsin": {"target": "T2, Human trypsin (Homo sapiens, UniProt P07477)", "T2 construct": "purchased Sigma-Aldrich; host or cells: purified from human tissue", "experiment": "Trypsin competitive inhibition assay", "conditions": "Table 10; read-out: Ki Trypsin", "outline": "as §1"}, "[2]": {"system": "clotting via the intrinsic pathway", "experiment": "Activated partial thromboplastin time (aPTT) assay in human plasma", "source_text": "as §2, §3, §4"}}, "note": "Bridge positions count the residues as written; N and C are the ends. Peptide text beside a SMILES is read from it.", "data": [{"smiles": "CC[C@H](C)[C@@H]1NC(=O)CNC(=O)CNC(=O)[C@H](CC(=O)O)NC(=O)[C@H](Cc2ccc(O)cc2)NC(=O)CNC(=O)[C@H](CO)NC(=O)CNC(=O)[C@@H]2CSSC[C@@H]3NC(=O)[C@H](CC(=O)O)NC(=O)[C@H](CO)NC(=O)[C@H](CC(=O)O)NC(=O)[C@H](CCCNC(=N)N)NC(=O)[C@H](CCCNC(=N)N)NC(=O)[C@@H]4CSSC[C@H](NC(=O)[C@H]([C@@H](C)CC)NC(=O)[C@H](CSSC[C@H](NC1=O)C(=O)N1CCC[C@H]1C(=O)N[C@@H](CCCNC(=N)N)C(=O)N[C@@H]([C@@H](C)CC)C(=O)NCC(=O)N[C@@H](CCCNC(=N)N)C(=O)N[C@@H](CC(C)C)C(=O)N4)NC(=O)[C@H](C)NC(=O)CNC(=O)[C@@H]1CCCN1C3=O)C(=O)N[C@@H](CCCNC(=N)N)C(=O)N[C@@H](C)C(=O)N[C@@H]([C@@H](C)O)C(=O)N[C@@H](CCCNC(=N)N)C(=O)N[C@@H](Cc1ccccc1)C(=O)N2", "note": "[MCoFx1 cyclic] (cyclo(ACICRATRFCGSGYDGGICPRIGRLCRRDSDCPG); disulfide 2-19, 4-26, 10-32)", "values": [{"measurement": "Ki", "setting": "Human β-FXIIa; Table 7, FXIIa, cyclic form of the peptide, read-out: Ki (nM) Cyclic", "value": "0.37 ± 0.04", "unit": "nM"}, {"measurement": "fold more potent than MCoTI-II (FXIIa Ki)", "setting": "Human β-FXIIa; ratio of Ki values", "value": 350, "unit": "fold"}, {"measurement": "difference in Ki FXIIa versus trypsin", "setting": "Human β-FXIIa; selectivity", "value": "exceeds three orders of magnitude"}, {"measurement": "clotting time compared to control, PT assay", "setting": "[1]", "value": "No significant differences in clotting time compared to control assays"}, {"measurement": "Ki", "setting": "Human trypsin", "value": 1110, "unit": "nM"}, {"measurement": "EC2× (concentration required to double the clotting time)", "setting": "[2]", "value": 702, "unit": "nM"}]}]}
